Drawing on PubChem BioAssay AID651630 (Sanford-Burnham Center for Chemical Genomics, 2012), this text covers IC50 and IC50 cytotoxicity (DAPI nuclear signal decrease) for 26 compounds.

What is called IC50 is the concentration at which inhibition is half-maximal.

Activity calls are given as the source filed them.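 The calls were made as follows: active = lipid-stain IC50 at or below a set limit, with nuclear-stain toxicity IC50 at least five times higher; inactive = the rest.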

The test system of one assay is TAG. Briefly: triacylglycerol accumulation inhibitor potency, dose response, cell-based, panel, Nile Red and DAPI fluorescence, H9c2 (AID 651630).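 Also: cells exposed to compound overnight before fixation and staining.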 Particulars: H9c2 cells, Nile Red TAG fluorescence, oleic acid.
A further assay concerns DAPI. The description is as above. Particulars: H9c2 cells, DAPI nuclear fluorescence (cytotoxicity counter-readout), oleic acid.

Regarding `O=C(Nc1cccc(-c2csc(Nc3ccc(Cl)cc3)n2)c1)c1cccc(C(F)(F)F)c1`, the IC50 with TAG (mean of runs) was 15.2 µM (inactive); in the assay with TAG (run 1) it was 13.6 µM; in the assay on TAG (run 2), 16.7 µM. The figures for the IC50 cytotoxicity (DAPI nuclear signal decrease) with DAPI (mean of runs), in the assay with DAPI (run 1) and with DAPI (run 2) were > 25 µM (inactive), more than 25 µM and more than 25 µM, respectively.
Turning to `CCCC1O[C@@H]2C[C@H]3[C@@H]4CCC5=CC(=O)C=C[C@]5(C)[C@H]4[C@@H](O)C[C@]3(C)[C@]2(C(=O)CO)O1` (some centres undefined), the IC50 was 3.49 µM in the assay with TAG (mean of runs), 3.52 µM in the assay on TAG (run 1) and 3.46 µM with TAG (run 2). Also, the IC50 cytotoxicity (DAPI nuclear signal decrease) with DAPI (run 1) and with DAPI (run 2) was more than 25 µM each time.
Turning to `CCOc1ccc(C(=O)NC(=S)Nc2cccc(S(=O)(=O)NC3=NCCC3)c2)cc1`, the results for the IC50 in the assay with TAG (mean of runs), in the assay on TAG (run 1) and in the assay on TAG (run 2) were > 25 µM (inactive), more than 25 µM and more than 25 µM, respectively. Besides, the IC50 cytotoxicity (DAPI nuclear signal decrease) is > 25 µM (inactive) with DAPI (mean of runs), more than 25 µM in the assay on DAPI (run 1) and more than 25 µM in the assay with DAPI (run 2).
Take `N#C/C(=C\c1cc([N+](=O)[O-])c(N2CCCCC2)cc1N1CCCCC1)c1nn(-c2ccccc2)c(N)c1C#N`: the IC50 is > 25 µM (inactive) with TAG (mean of runs), more than 25 µM in the assay with TAG (run 1) and more than 25 µM in the assay with TAG (run 2). Moreover, the IC50 cytotoxicity (DAPI nuclear signal decrease) with DAPI (mean of runs) is > 25 µM (inactive); in the assay with DAPI (run 1), more than 25 µM; with DAPI (run 2) it was more than 25 µM.
Consider `COC(=O)c1cc(NC(=O)c2c(Cl)nc3sccn23)cc(C(=O)OC)c1`, for which the results for the IC50 with TAG (mean of runs), in the assay on TAG (run 1) and in the assay with TAG (run 2) were > 25 µM (inactive), more than 25 µM and more than 25 µM, respectively. Moreover, the IC50 cytotoxicity (DAPI nuclear signal decrease) was > 25 µM (inactive) in the assay on DAPI (mean of runs), more than 25 µM in the assay with DAPI (run 1) and more than 25 µM with DAPI (run 2).
In the case of `CCOc1ccccc1C1C2=C(COC2=O)Nc2cc3c(cc21)OCO3` (centres undefined), the half-inhibitory concentration (IC50) is more than 25 µM in the assay on TAG (run 1) and less than 0.78 µM in the assay with TAG (run 2). The IC50 cytotoxicity (DAPI nuclear signal decrease) in the assay with DAPI (mean of runs) was > 25 µM (inactive); in the assay on DAPI (run 1), more than 25 µM; in the assay with DAPI (run 2) it was more than 25 µM.
Consider `COC(=O)[C@@]1(Cc2ccccc2)[C@H]2C(=O)N(Cc3ccccc3)C(=O)[C@H]2[C@H]2CN=C(SCc3ccc(Cl)cc3)N21`, for which the IC50 in the assay on TAG (mean of runs) was 9.75 µM; with TAG (run 1), 10.4 µM; in the assay with TAG (run 2), 9.1 µM. For the same compound, the results for the IC50 cytotoxicity (DAPI nuclear signal decrease) in the assay with DAPI (mean of runs), with DAPI (run 1) and in the assay on DAPI (run 2) were > 25 µM (inactive), more than 25 µM and more than 25 µM, respectively.
With `CN(C)CCNC(=O)C(=O)Nc1ccc2c(c1)N(S(=O)(=O)c1cccs1)CCC2`, the IC50 in the assay on TAG (mean of runs) is > 25 µM (inactive); in the assay with TAG (run 1), more than 25 µM; in the assay on TAG (run 2), more than 25 µM. Also, the figures for the IC50 cytotoxicity (DAPI nuclear signal decrease) in the assay on DAPI (mean of runs), with DAPI (run 1) and with DAPI (run 2) were > 25 µM (inactive), more than 25 µM and more than 25 µM, respectively.
`Nc1c(Cl)cc(-c2csc(N3CCCC3c3nc4cc(Cl)c(N5CCCCC5)cc4n3CCOCCO)n2)cc1Cl` (centres undefined): the 50% inhibitory concentration (IC50) with TAG (mean of runs) is 11.4 µM; in the assay with TAG (run 1), 11.6 µM; in the assay with TAG (run 2), 11.1 µM. Moreover, the figures for the IC50 cytotoxicity (DAPI nuclear signal decrease) with DAPI (mean of runs), in the assay on DAPI (run 1) and in the assay on DAPI (run 2) were > 25 µM (inactive), more than 25 µM and more than 25 µM, respectively.
Consider `O=C(NC1CCCCC1)C(c1ccccc1)N(Cc1ccc2c(c1)OCO2)C(=O)c1cnsn1` (centres undefined), for which the IC50 in the assay on TAG (mean of runs) is 18.7 µM (inactive); with TAG (run 1), 17.2 µM; in the assay with TAG (run 2), 20.2 µM. Besides, the values for the IC50 cytotoxicity (DAPI nuclear signal decrease) in the assay on DAPI (mean of runs), in the assay on DAPI (run 1) and in the assay on DAPI (run 2) were > 25 µM (inactive), more than 25 µM and more than 25 µM, respectively.
Turning to `CCOC(=O)c1cc(-c2ccccc2)sc1NC(=O)C(C)N1C(=O)NC(C)(c2ccc(Cl)cc2)C1=O` (centres undefined), the IC50 in the assay with TAG (mean of runs) was 5.58 µM; in the assay on TAG (run 1), 5.07 µM; with TAG (run 2) it was 6.09 µM. The IC50 cytotoxicity (DAPI nuclear signal decrease) in the assay with DAPI (mean of runs) was > 25 µM (inactive); with DAPI (run 1), more than 25 µM; in the assay with DAPI (run 2) it was more than 25 µM.
As to `Cc1cc(C)cc(-n2c3ccc(NC(=O)Cc4cccc5ccccc45)cc3c(=O)n2C)c1`, the IC50 was 21.7 µM in the assay on TAG (run 1) and more than 25 µM with TAG (run 2). In addition, the IC50 cytotoxicity (DAPI nuclear signal decrease) was > 25 µM (inactive) in the assay with DAPI (mean of runs), more than 25 µM with DAPI (run 1) and more than 25 µM with DAPI (run 2).
With `CC(C)(C)NCCC(O)c1cc(C(F)(F)F)nc2c(C(F)(F)F)cccc12` (centres undefined), the IC50 in the assay on TAG (mean of runs) was 11.2 µM; in the assay with TAG (run 1) it was 11.5 µM; with TAG (run 2), 11 µM. For the same compound, the IC50 cytotoxicity (DAPI nuclear signal decrease) in the assay with DAPI (mean of runs) is > 25 µM (inactive); with DAPI (run 1), more than 25 µM; in the assay with DAPI (run 2), more than 25 µM.
Consider `CCCCCCSc1cc(-c2nc3ccc(Cl)cn3c2NC2CCCCC2)ccc1OC`, for which the IC50 in the assay with TAG (mean of runs) is 22.6 µM (inactive); in the assay on TAG (run 1), 20.4 µM; with TAG (run 2), 24.7 µM. Further, the IC50 cytotoxicity (DAPI nuclear signal decrease) is > 25 µM (inactive) with DAPI (mean of runs), more than 25 µM in the assay on DAPI (run 1) and more than 25 µM with DAPI (run 2).
Consider `COc1cc(CNC(=O)Nc2nc(C(N)Cc3ccc(Cl)cc3)cs2)cc(OC)c1OC` (centres undefined), for which the half-maximal inhibitory concentration (IC50) was 3.91 µM with TAG (mean of runs), 3.31 µM with TAG (run 1) and 4.5 µM in the assay with TAG (run 2). In addition, the IC50 cytotoxicity (DAPI nuclear signal decrease) with DAPI (run 1) and with DAPI (run 2) was more than 25 µM in each case.
On to `CCCCN(C)C(=O)c1ccc(Nc2nc(C(N)Cc3ccc(C(F)(F)F)cc3)cs2)nc1` (centres undefined), for which the IC50 with TAG (mean of runs) was > 25 µM (inactive); in the assay with TAG (run 1) it was more than 25 µM; in the assay on TAG (run 2), more than 25 µM. In addition, the IC50 cytotoxicity (DAPI nuclear signal decrease) with DAPI (mean of runs) is > 25 µM (inactive); in the assay on DAPI (run 1), more than 25 µM; with DAPI (run 2), more than 25 µM.
For `NC(=O)N/N=C/c1c(Sc2nnnn2-c2ccccc2)nc2ccccn2c1=O`, the concentration for half-maximal inhibition (IC50) with TAG (mean of runs) was 10.7 µM; in the assay on TAG (run 1) it was 15.3 µM; in the assay with TAG (run 2), 6.11 µM. Besides, the IC50 cytotoxicity (DAPI nuclear signal decrease) was 17.2 µM (inactive) in the assay on DAPI (mean of runs), 15.7 µM with DAPI (run 1) and 18.7 µM with DAPI (run 2).
On to `COc1ccc(NC(=S)N(CCCN2CCCC2)Cc2cccn2Cc2ccc(Cl)cc2)cc1Cl`, for which the results for the IC50 in the assay on TAG (run 1) and in the assay on TAG (run 2) were 16.8 µM and more than 25 µM, respectively. The IC50 cytotoxicity (DAPI nuclear signal decrease) in the assay with DAPI (run 1) was 24.1 µM; with DAPI (run 2), more than 25 µM.
Regarding `CC(C)C[C@@H](CNC(=O)OC(C)(C)C)NC(=O)c1nc[nH]c1C(=O)N[C@@H](CC(C)C)C(=O)CNC[C@H](CC(C)C)NC(=O)c1nc[nH]c1C(=O)N[C@@H](Cc1c[nH]c2ccccc12)C(=O)OC(C)(C)C`, the results for the IC50 in the assay with TAG (mean of runs), in the assay with TAG (run 1) and in the assay with TAG (run 2) were 5.5 µM, 4.49 µM and 6.51 µM, respectively. For the same compound, the IC50 cytotoxicity (DAPI nuclear signal decrease) in the assay with DAPI (mean of runs) is > 25 µM (inactive); in the assay with DAPI (run 1), more than 25 µM; in the assay with DAPI (run 2), more than 25 µM.
For `COc1ccc(OC)c(Nc2nc(-c3sc(NC(=O)CC(C)C)nc3C)cs2)c1`, the half-inhibitory concentration (IC50) is 14.1 µM with TAG (mean of runs), 12.9 µM with TAG (run 1) and 15.3 µM in the assay with TAG (run 2). For the same compound, the IC50 cytotoxicity (DAPI nuclear signal decrease) was > 25 µM (inactive) with DAPI (mean of runs), more than 25 µM in the assay on DAPI (run 1) and more than 25 µM in the assay on DAPI (run 2).
For the compound `CCCC(=O)Nc1nc2ccc(NC(=O)c3c(F)c(F)c(OC)c(F)c3F)cc2s1`, the half-inhibitory concentration (IC50) is 6.21 µM with TAG (mean of runs), 6.68 µM in the assay on TAG (run 1) and 5.73 µM with TAG (run 2). For the same compound, the IC50 cytotoxicity (DAPI nuclear signal decrease) is > 25 µM (inactive) with DAPI (mean of runs), more than 25 µM in the assay on DAPI (run 1) and more than 25 µM with DAPI (run 2).
Turning to `O=C(NCC(c1ccc(F)cc1)N1CCOCC1)c1ccc([N+](=O)[O-])o1` (centres undefined), the results for the IC50 in the assay on TAG (mean of runs), in the assay with TAG (run 1) and in the assay with TAG (run 2) were > 25 µM (inactive), more than 25 µM and more than 25 µM, respectively. The IC50 cytotoxicity (DAPI nuclear signal decrease) in the assay on DAPI (mean of runs) is 19.7 µM (inactive); with DAPI (run 1), 19.7 µM; with DAPI (run 2), 19.6 µM.
For `CC(C)c1ccc(NC(=O)Nc2nc(C(N)COCc3ccccc3)cs2)cc1` (centres undefined), the 50% inhibitory concentration (IC50) is more than 25 µM in the assay with TAG (run 1) and 14 µM in the assay on TAG (run 2). Also, the IC50 cytotoxicity (DAPI nuclear signal decrease) with DAPI (mean of runs) is 20.2 µM (inactive); in the assay on DAPI (run 1), 20.8 µM; in the assay on DAPI (run 2) it was 19.7 µM.
Consider `COc1cc(NC(=O)c2csc(N)n2)cc(C(=O)Nc2cccc(C(F)(F)F)c2)c1`, for which the IC50 in the assay on TAG (mean of runs) is 13.5 µM; in the assay on TAG (run 1), 10.7 µM; in the assay with TAG (run 2), 16.4 µM. Further, the figures for the IC50 cytotoxicity (DAPI nuclear signal decrease) in the assay on DAPI (mean of runs), in the assay on DAPI (run 1) and in the assay on DAPI (run 2) were > 25 µM (inactive), more than 25 µM and more than 25 µM, respectively.
With `CN(C)CCNC(=O)c1cccc(-c2cnc3c(NC=O)cc(-c4cccc(C(F)(F)F)c4)cn23)c1`, the IC50 in the assay with TAG (mean of runs) is > 25 µM (inactive); in the assay on TAG (run 1), more than 25 µM; with TAG (run 2), more than 25 µM. For the same compound, the IC50 cytotoxicity (DAPI nuclear signal decrease) with DAPI (mean of runs) was > 25 µM (inactive); in the assay on DAPI (run 1) it was more than 25 µM; in the assay on DAPI (run 2), more than 25 µM.
Take `CCOc1ccc(Cc2nnc(SCC(=O)Nc3ccccc3)n(N)c2=O)cc1`: the IC50 was 5.04 µM with TAG (mean of runs), 5.36 µM in the assay with TAG (run 1) and 4.71 µM in the assay on TAG (run 2). The IC50 cytotoxicity (DAPI nuclear signal decrease) was > 25 µM (inactive) in the assay with DAPI (mean of runs), more than 25 µM in the assay with DAPI (run 1) and more than 25 µM in the assay with DAPI (run 2).
